Values of other authors in paper PMC8537277 (Pharmaceuticals, 2021).

Biological target: HA receptor-binding site (RBS)
Parameters: method as in PMID 29610325
Settings: ref [20]; cited from earlier work

In the case of `CC(=O)N[C@H]1[C@H]([C@H](O)[C@H](O)CO)OC(O)(C(=O)O)C[C@@H]1O` (stereo partly shown) [sialic acid], the KD is listed as “mM range”.
